Reference: US11434289B2, “Anti-GPR20 antibody and anti-GPR20 antibody-drug conjugate” (DAIICHI SANKYO COMPANY, LIMITED, priority 2017, dated 2022)

Legend:
GIST074 = experiment: Antitumor effect in subcutaneously GIST074-transplanted nude mouse models (regorafenib-unresponsive patient tumor); type: in vivo, BALB/c nude mice; settings: orally once a day; imatinib 90, sunitinib 30, regorafenib 4 mg/kg; FIG. 36
Description: The antitumor effects of the antibody-drug conjugates were evaluated using animal models derived from immunodeficient mice by the transplantation of human gastrointestinal stromal tumor-derived cells. Five- to 6-week-old female BALB/c nude mice (CAnN.Cg-Foxnlnu/CrlCrlj, Charles River Laboratories Japan Inc.) were acclimatized for 4 to 7 days under SPF conditions before use in the experiment. The mice were fed with a sterilized solid diet (FR-2, Funabashi Farms Co., Ltd) and given sterilized tap water (which had been prepared by adding a 5 to 15 ppm sodium hypochlorite solution to tap water). The longest diameter and the shortest diameter of the transplanted tumor were measured once or twice a week using electronic digital calipers (CD-15CX, Mitutoyo Corp.), and the volume of the tumor was then calculated according to the following equation. Tumor volume (mm^3)=½×Longest diameter (mm)×[Shortest diameter (mm)]^2
[…] ABS buffer was administered in the same manner as above to a control group (vehicle group). Five or six mice per group were used in the experiment. […]

[1] = system: human gastrointestinal stromal tumor cell line GIST430/654; experiment: Antitumor effect and combined use with sunitinib in GIST430/654-transplanted nude mouse models (imatinib resistance mutation V654A in KIT); type: in vivo, BALB/c nude mice; settings: orally once a day; imatinib 150, sunitinib 40 mg/kg; FIG. 37
Description: The effect of combined use with sunitinib was evaluated in models with human gastrointestinal stromal tumor cell line GIST430/654 (obtained from Brigham Women's Hospital) having imatinib resistance mutation V654A in the KIT gene. […]

Row | Compound | tumor growth (GIST074) | tumor growth [1]
1 | CNC(=O)c1cc(Oc2ccc(NC(=O)Nc3ccc(Cl)c(C(F)(F)F)c3)c(F)c2)ccn1 [regorafenib] | tumor growth was not completely suppressed | 
2 | Cc1ccc(NC(=O)c2ccc(CN3CCN(C)CC3)cc2)cc1Nc1nccc(-c2cccnc2)n1 [imatinib] | tumor growth was not completely suppressed | did not suppress tumor growth
